{"source": "patent US20100267561A1", "about": "“HERBICIDAL PYRIDAZINONE DERIVATIVES” (priority 2007, published 2010)", "format_in_all_cases": "in vivo", "key": {"[1]": {"tested_on": "barnyardgrass (Echinochloa crus-galli)", "assay": "Test A pre-/postemergence plant response", "in_short": "(§1)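 Scores reflect visual plant injury relative to untreated controls on a 0–100 scale, recorded approximately 10 days after simultaneous preemergence soil spraying and postemergence spraying of one- to two-leaf seedlings grown in loam–sand.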"}, "corn (Zea mays)": {"tested_on": "corn (Zea mays)", "assay": "Test A pre-/postemergence plant response", "in_short": "as §1"}, "[2]": {"tested_on": "giant foxtail (Setaria faberi)", "assay": "Test A pre-/postemergence plant response", "in_short": "as §1"}, "[3]": {"tested_on": "large crabgrass (Digitaria sanguinalis)", "assay": "Test A pre-/postemergence plant response", "in_short": "as §1"}, "[4]": {"tested_on": "morningglory (Ipomoea coccinea)", "assay": "Test A pre-/postemergence plant response", "in_short": "as §1"}, "[5]": {"tested_on": "pigweed (Amaranthus retroflexus)", "assay": "Test A pre-/postemergence plant response", "in_short": "as §1"}, "[6]": {"tested_on": "velvetleaf (Abutilon theophrasti)", "assay": "Test A pre-/postemergence plant response", "in_short": "as §1"}, "[7]": {"tested_on": "wheat (Triticum aestivum)", "assay": "Test A pre-/postemergence plant response", "in_short": "as §1"}, "[8]": {"tested_on": "barnyardgrass (Echinochloa crus-galli)", "assay": "Test B flooded paddy test plant response", "in_short": "(§2)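 Compounds were added directly to paddy water over 2-leaf-stage plants in pots flooded 3 cm above soil, water depth maintained. Visual injury scored against controls after 13 to 15 days in greenhouse, 0 (none) to 100 (complete control); dash indicates no result.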"}, "[9]": {"tested_on": "ducksalad (Heteranthera limosa)", "assay": "Test B flooded paddy test plant response", "in_short": "as §2"}, "rice (Oryza sativa)": {"tested_on": "rice (Oryza sativa)", "assay": "Test B flooded paddy test plant response", "in_short": "as §2"}, "[10]": {"tested_on": "umbrella sedge (Cyperus difformis)", "assay": "Test B flooded paddy test plant response", "in_short": "as §2"}, "[11]": {"details": "Postemergence, 31 g ai/ha, 0 to 100 scale (0 no effect, 100 complete control)"}, "[12]": {"details": "Postemergence, 125 g ai/ha, 0 to 100 scale, 0 no effect, 100 complete control"}, "[13]": {"details": "Preemergence, 31 g ai/ha, 0 to 100 scale, 0 is no effect, 100 is complete control"}, "[14]": {"details": "Preemergence, 125 g ai/ha, 0 to 100 scale (0 no effect, 100 complete control)"}, "[15]": {"details": "Flood (flooded paddy test), 62 g ai/ha, scale 0 to 100, 0 no effect, 100 complete control"}, "[16]": {"details": "Flood (flooded paddy test), 125 g ai/ha, scale 0 to 100, 0 no effect, 100 complete control"}, "[17]": {"details": "Flood (flooded paddy test), 250 g ai/ha, scale 0 to 100, 0 no effect, 100 complete control"}, "[18]": {"details": "Flood, 31 g ai/ha, scale 0 to 100"}}, "data": [{"smiles": "CCc1cc(-c2ccc(Br)cc2)nn1-c1c(O)cnn(C)c1=O", "note": "[Compound 61]", "values": [{"measurement": "Plant response rating, Barnyardgrass", "setting": "[1]; [11]", "result": 100}, {"measurement": "Plant response rating, Barnyardgrass", "setting": "[1]; [12]", "result": 100}, {"measurement": "Plant response rating, Barnyardgrass", "setting": "[1]; [13]", "result": 90}, {"measurement": "Plant response rating, Barnyardgrass", "setting": "[1]; [14]", "result": 100}, {"measurement": "Plant response rating, Corn", "setting": "corn (Zea mays); [11]", "result": 100}, {"measurement": "Plant response rating, Corn", "setting": "corn (Zea mays); [12]", "result": 100}, {"measurement": "Plant response rating, Corn", "setting": "corn (Zea mays); [13]", "result": 70}, {"measurement": "Plant response rating, Corn", "setting": "corn (Zea mays); [14]", "result": 90}, {"measurement": "Plant response rating, Foxtail, Giant", "setting": "[2]; [11]", "result": 100}, {"measurement": "Plant response rating, Foxtail, Giant", "setting": "[2]; [12]", "result": 100}, {"measurement": "Plant response rating, Foxtail, Giant", "setting": "[2]; [13]", "result": 100}, {"measurement": "Plant response rating, Foxtail, Giant", "setting": "[2]; [14]", "result": 100}, {"measurement": "Plant response rating, Crabgrass, Large", "setting": "[3]; [11]", "result": 100}, {"measurement": "Plant response rating, Crabgrass, Large", "setting": "[3]; [12]", "result": 100}, {"measurement": "Plant response rating, Crabgrass, Large", "setting": "[3]; [13]", "result": 80}, {"measurement": "Plant response rating, Crabgrass, Large", "setting": "[3]; [14]", "result": 100}, {"measurement": "Plant response rating, Morningglory", "setting": "[4]; [11]", "result": 0}, {"measurement": "Plant response rating, Morningglory", "setting": "[4]; [12]", "result": 0}, {"measurement": "Plant response rating, Morningglory", "setting": "[4]; [13]", "result": 0}, {"measurement": "Plant response rating, Morningglory", "setting": "[4]; [14]", "result": 0}, {"measurement": "Plant response rating, Pigweed", "setting": "[5]; [11]", "result": 0}, {"measurement": "Plant response rating, Pigweed", "setting": "[5]; [12]", "result": 0}, {"measurement": "Plant response rating, Pigweed", "setting": "[5]; [13]", "result": 0}, {"measurement": "Plant response rating, Pigweed", "setting": "[5]; [14]", "result": 0}, {"measurement": "Plant response rating, Velvetleaf", "setting": "[6]; [11]", "result": 0}, {"measurement": "Plant response rating, Velvetleaf", "setting": "[6]; [12]", "result": 0}, {"measurement": "Plant response rating, Velvetleaf", "setting": "[6]; [13]", "result": 0}, {"measurement": "Plant response rating, Velvetleaf", "setting": "[6]; [14]", "result": 0}, {"measurement": "Plant response rating, Wheat", "setting": "[7]; [11]", "result": 80}, {"measurement": "Plant response rating, Wheat", "setting": "[7]; [12]", "result": 90}, {"measurement": "Plant response rating, Wheat", "setting": "[7]; [13]", "result": 70}, {"measurement": "Plant response rating, Wheat", "setting": "[7]; [14]", "result": 90}, {"measurement": "Plant response rating, Barnyardgrass", "setting": "[8]; [15]", "result": 0}, {"measurement": "Plant response rating, Barnyardgrass", "setting": "[8]; [16]", "result": 50}, {"measurement": "Plant response rating, Barnyardgrass", "setting": "[8]; [17]", "result": 100}, {"measurement": "Plant response rating, Barnyardgrass", "setting": "[8]; [18]", "result": 0}, {"measurement": "Plant response rating, Ducksalad", "setting": "[9]; [15]", "result": 0}, {"measurement": "Plant response rating, Ducksalad", "setting": "[9]; [16]", "result": 0}, {"measurement": "Plant response rating, Ducksalad", "setting": "[9]; [17]", "result": 70}, {"measurement": "Plant response rating, Ducksalad", "setting": "[9]; [18]", "result": 0}, {"measurement": "Plant response rating, Rice", "setting": "rice (Oryza sativa); [15]", "result": 0}, {"measurement": "Plant response rating, Rice", "setting": "rice (Oryza sativa); [16]", "result": 15}, {"measurement": "Plant response rating, Rice", "setting": "rice (Oryza sativa); [17]", "result": 60}, {"measurement": "Plant response rating, Rice", "setting": "rice (Oryza sativa); [18]", "result": 0}, {"measurement": "Plant response rating, Sedge, Umbrella", "setting": "[10]; [15]", "result": 0}, {"measurement": "Plant response rating, Sedge, Umbrella", "setting": "[10]; [16]", "result": 0}, {"measurement": "Plant response rating, Sedge, Umbrella", "setting": "[10]; [17]", "result": 30}, {"measurement": "Plant response rating, Sedge, Umbrella", "setting": "[10]; [18]", "result": 0}]}, {"smiles": "CCc1cc(-c2ccc(C(F)(F)F)cc2)nn1-c1c(O)cnn(CC)c1=O", "note": "[Compound 67]", "values": [{"measurement": "Plant response rating, Barnyardgrass", "setting": "[1]; [11]", "result": 100}, {"measurement": "Plant response rating, Barnyardgrass", "setting": "[1]; [12]", "result": 100}, {"measurement": "Plant response rating, Barnyardgrass", "setting": "[1]; [13]", "result": 0}, {"measurement": "Plant response rating, Barnyardgrass", "setting": "[1]; [14]", "result": 100}, {"measurement": "Plant response rating, Corn", "setting": "corn (Zea mays); [11]", "result": 90}, {"measurement": "Plant response rating, Corn", "setting": "corn (Zea mays); [12]", "result": 100}, {"measurement": "Plant response rating, Corn", "setting": "corn (Zea mays); [13]", "result": 20}, {"measurement": "Plant response rating, Corn", "setting": "corn (Zea mays); [14]", "result": 80}, {"measurement": "Plant response rating, Foxtail, Giant", "setting": "[2]; [11]", "result": 100}, {"measurement": "Plant response rating, Foxtail, Giant", "setting": "[2]; [12]", "result": 100}, {"measurement": "Plant response rating, Foxtail, Giant", "setting": "[2]; [13]", "result": 40}, {"measurement": "Plant response rating, Foxtail, Giant", "setting": "[2]; [14]", "result": 100}, {"measurement": "Plant response rating, Crabgrass, Large", "setting": "[3]; [11]", "result": 80}, {"measurement": "Plant response rating, Crabgrass, Large", "setting": "[3]; [12]", "result": 100}, {"measurement": "Plant response rating, Crabgrass, Large", "setting": "[3]; [13]", "result": 20}, {"measurement": "Plant response rating, Crabgrass, Large", "setting": "[3]; [14]", "result": 90}, {"measurement": "Plant response rating, Morningglory", "setting": "[4]; [11]", "result": 0}, {"measurement": "Plant response rating, Morningglory", "setting": "[4]; [12]", "result": 0}, {"measurement": "Plant response rating, Morningglory", "setting": "[4]; [13]", "result": 0}, {"measurement": "Plant response rating, Morningglory", "setting": "[4]; [14]", "result": 0}, {"measurement": "Plant response rating, Pigweed", "setting": "[5]; [11]", "result": 0}, {"measurement": "Plant response rating, Pigweed", "setting": "[5]; [12]", "result": 0}, {"measurement": "Plant response rating, Pigweed", "setting": "[5]; [13]", "result": 0}, {"measurement": "Plant response rating, Pigweed", "setting": "[5]; [14]", "result": 0}, {"measurement": "Plant response rating, Velvetleaf", "setting": "[6]; [11]", "result": 0}, {"measurement": "Plant response rating, Velvetleaf", "setting": "[6]; [12]", "result": 0}, {"measurement": "Plant response rating, Velvetleaf", "setting": "[6]; [13]", "result": 0}, {"measurement": "Plant response rating, Velvetleaf", "setting": "[6]; [14]", "result": 0}, {"measurement": "Plant response rating, Wheat", "setting": "[7]; [11]", "result": 90}, {"measurement": "Plant response rating, Wheat", "setting": "[7]; [12]", "result": 100}, {"measurement": "Plant response rating, Wheat", "setting": "[7]; [13]", "result": 20}, {"measurement": "Plant response rating, Wheat", "setting": "[7]; [14]", "result": 90}, {"measurement": "Plant response rating, Barnyardgrass", "setting": "[8]; [15]", "result": 25}, {"measurement": "Plant response rating, Barnyardgrass", "setting": "[8]; [16]", "result": 35}, {"measurement": "Plant response rating, Barnyardgrass", "setting": "[8]; [17]", "result": 50}, {"measurement": "Plant response rating, Barnyardgrass", "setting": "[8]; [18]", "result": 0}, {"measurement": "Plant response rating, Ducksalad", "setting": "[9]; [15]", "result": 0}, {"measurement": "Plant response rating, Ducksalad", "setting": "[9]; [16]", "result": 0}, {"measurement": "Plant response rating, Ducksalad", "setting": "[9]; [17]", "result": 75}, {"measurement": "Plant response rating, Ducksalad", "setting": "[9]; [18]", "result": 0}, {"measurement": "Plant response rating, Rice", "setting": "rice (Oryza sativa); [15]", "result": 0}, {"measurement": "Plant response rating, Rice", "setting": "rice (Oryza sativa); [16]", "result": 0}, {"measurement": "Plant response rating, Rice", "setting": "rice (Oryza sativa); [17]", "result": 15}, {"measurement": "Plant response rating, Rice", "setting": "rice (Oryza sativa); [18]", "result": 0}, {"measurement": "Plant response rating, Sedge, Umbrella", "setting": "[10]; [15]", "result": 0}, {"measurement": "Plant response rating, Sedge, Umbrella", "setting": "[10]; [16]", "result": 0}, {"measurement": "Plant response rating, Sedge, Umbrella", "setting": "[10]; [17]", "result": 0}, {"measurement": "Plant response rating, Sedge, Umbrella", "setting": "[10]; [18]", "result": 0}]}]}
